According to US20120189627A1, “Semi-Synthetic GLP-1 Peptide-FC Fusion Constructs, Methods and Uses” (priority 2007, published 2012):
Ends that are not written are not given here.

How the values were obtained:
[1] = target: T1, GLP-1 Receptor (Rattus norvegicus, UniProt P32301); test: LANCE cAMP assay in INS-1E cells; type: cell-based; conditions: FIG. 1
T1 construct: endogenous in cells; host or cells: INS-1E cells
T1 sequence (P32301 22-463): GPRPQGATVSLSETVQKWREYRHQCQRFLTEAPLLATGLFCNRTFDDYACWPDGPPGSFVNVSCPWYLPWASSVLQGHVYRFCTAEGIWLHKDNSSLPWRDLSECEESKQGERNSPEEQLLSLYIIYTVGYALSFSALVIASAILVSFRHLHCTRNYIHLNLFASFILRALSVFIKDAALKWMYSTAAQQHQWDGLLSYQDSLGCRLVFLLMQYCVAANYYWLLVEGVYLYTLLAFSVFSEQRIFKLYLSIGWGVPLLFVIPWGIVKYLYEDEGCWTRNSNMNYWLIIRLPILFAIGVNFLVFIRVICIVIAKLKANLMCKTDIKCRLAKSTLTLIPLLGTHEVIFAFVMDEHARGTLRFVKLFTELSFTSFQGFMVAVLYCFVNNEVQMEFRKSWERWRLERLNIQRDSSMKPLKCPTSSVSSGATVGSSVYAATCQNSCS
Method: The peptide-conjugates were tested for activity using the cAMP assay which measures cAMP produced upon modulation of adenylyl cyclase activity by GPCRs. • cAMP Assay The LANCE™ cAMP assay (Hemmila I. 1999. LANCE™: Homogeneous Assay Platform for HTS. J Biomol Screen. 4(6), 303-308) is a homogeneous time-resolved fluorescence resonance energy transfer (TR-FRET) immunoassay. The assay is based on the competition between a europium-labeled cAMP tracer and sample cAMP for binding sites on cAMP-specific antibodies labeled with the dye Alexa Fluor® 647. The europium-labeled tracer complex is formed by the tight interaction between Biotin-cAMP and streptavidin labeled with Europium-W8044 chelate. When antibodies are bound to the Eu-SA/b-cAMP tracer, light pulse 340 nm excites the Eu-chelate molecules of the tracer. […] The fluorescence intensity measure at 665 nm will decrease in the presence of cAMP from the test samples and resulting signals will be inversely proportional to the cAMP concentration of a sample (LANCE cAMP manual). • Cells and Assay. […]
For the assay, INS-1E cells were plated at confluence in 96-well plates (Costar 3610) and allowed to recover for 4 days in normal growth media. […] The plates were incubated at room temperature for 1 hour and then fluorescence intensity was measured at 665 nm. Cyclic AMP concentrations were determined against a standard curve.

[2] = administered subcutaneously; cited from earlier work
[3] = type 2 diabetic patients, cited from earlier work

Substance: His-[D-Ala]-Glu-Gly-Thr-Phe-Thr-Ser-Asp-Val-Ser-Ser-Tyr-Leu-Glu-Gly-Gln-Ala-Ala-Lys-Glu-Phe-Ile-Ala-Trp-Leu-Val-Lys-Gly-Arg-Gly-(N-3-aminopropyl)-PEG3-NH—CO—CH2—NH—NH2 [Peptide 1]
- bioactivity: ability to stimulate cAMP compared to wild-type GLP-1 [1]: no loss in bioactivity

Substance: GLP-1 (7-36) amide: GLP-1 (7-36) amide, GLP-1 peptide of the background section (HAEGTFTSDVSSYLEGQAAKEFIAWLVKGR-NH2; UniProt P01275 98-127, looked up)
- time action [2]: about 50 minutes

Substance: GLP-1: Glucagon like peptide-1, peptide secreted from the L-cells of the intestine; given as six-week infusion (HAEGTFTSDVSSYLEGQAAKEFIAWLVKGRG-NH2; listed as Homo sapiens)
- fasting and 8-hour mean plasma glucose levels ([3]; six-week infusion): lowered
- β-cell function [3]: improvement
